Assays:
SARS-COV-2 [1] = settings: WHO Solidarity Trial; cited from earlier work
SARS-COV-2 [2] = test: In vitro inhibition of SARS-COV-2 replication in Vero E6 cells (viral load by quantitative real-time RT-PCR); assay type: cell-based; settings: for effect of removal of the single agent from the formulation on overall activity (FIG. 18): APHR Combination 1 minus one agent
SARS-COV-2 [3] = test: Human ACE2 transgenic COVID-19 mouse model (intranasal SARS-COV-2 infection); assay type: in vivo, mice; settings: for Survival (%): Daily
SARS-COV-2 [4] = assay type: in vivo; settings: intention-to-treat population; 10 subjects per arm
SARS-COV-2 [5] = settings: 5-day course, 476 patients, mild COVID-19; cited from earlier work
[6] = 200 mg/kg, Pretreatment to Day 7

Compound: Cc1cccc(C)c1OCC(=O)N[C@@H](Cc1ccccc1)[C@@H](O)C[C@H](Cc1ccccc1)NC(=O)[C@H](C(C)C)N1CCCNC1=O [lopinavir]
- effect on hospitalized patients with Covid-19 (SARS-COV-2 [1]): little or no effect

Compound: O=C(OC[C@H]1O[C@@H](OC(=O)c2cc(O)c(O)c(OC(=O)c3cc(O)c(O)c(O)c3)c2)[C@H](OC(=O)c2cc(O)c(O)c(OC(=O)c3cc(O)c(O)c(O)c3)c2)[C@@H](OC(=O)c2cc(O)c(O)c(OC(=O)c3cc(O)c(O)c(O)c3)c2)[C@@H]1OC(=O)c1cc(O)c(O)c(OC(=O)c2cc(O)c(O)c(O)c2)c1)c1cc(O)c(O)c(OC(=O)c2cc(O)c(O)c(O)c2)c1 [tannic acid]
- effect of removal of the single agent from the formulation on overall activity (FIG. 18) (SARS-COV-2 [2]): reduced overall activity

Compound: O=c1c(O)c(-c2ccc(O)c(O)c2)oc2cc(O)cc(O)c12 [Quercitin]
- Survival (%) (SARS-COV-2 [3]; 66 mg/kg, Pretreatment to Day 7): 80%
- Survival (%) (SARS-COV-2 [3]; [6]): 100%

Compound: C[C@@H]1O[C@@H](OC[C@H]2O[C@@H](Oc3c(-c4ccc(O)c(O)c4)oc4cc(O)cc(O)c4c3=O)[C@H](O)[C@@H](O)[C@@H]2O)[C@H](O)[C@H](O)[C@H]1O [rutin]
- inhibition at 1 µM (SARS-COV-2 [2]; Severe acute respiratory syndrome coronavirus 2, Vero C1008, 1 μM final concentration, 1:1 molar ratio of cyclodextrin to rutin, read-out: inhibition of SARS-COV-2 replication over untreated (FIG. 16)): ~25%

Compound: CCN(CCO)CCCC(C)Nc1ccnc2cc(Cl)ccc12 (stereo not shown) [hydroxychloroquine]
- effect on hospitalized patients with Covid-19 (SARS-COV-2 [1]): little or no effect

Compound: CC(C)=CCC[C@](C)(O)C1CC=C(C)CC1 (stereo partly shown) [bisabolol]
- effect of removal of the single agent from the formulation on overall activity (FIG. 18) (SARS-COV-2 [2]): reduced overall activity

Compound: ivermectin
- morbidity, body weight (FIG. 8) (SARS-COV-2 [3]; β-cyclodextrin Rutin daily from Day 2 post infection, Ivermectin once on Day 2 post infection): decreased morbidity
- Time to defervescence (days) (SARS-COV-2 [4]): 4 (3 to 6) days
- Time to resolution of COVID symptoms (days) (SARS-COV-2 [4]): 4 (3 to 6) days
- duration of symptoms compared with placebo (SARS-COV-2 [5]): not significantly different

Compound: CCC(CC)COC(=O)[C@H](C)N[P@](=O)(OC[C@H]1O[C@@](C#N)(c2ccc3c(N)ncnn23)[C@H](O)[C@@H]1O)Oc1ccccc1 [Remdesivir]
- Survival (%) (SARS-COV-2 [3]; 50 mg/kg, Day 1 post-treatment to 7): 100%
- Survival (%) (SARS-COV-2 [3]; [6]): 100%

From patent US20240350659A1, “COMPOSITIONS AND METHODS FOR BIMODAL ANTI-VIRAL COMBINATION THERAPY” (priority 2021, published 2024)
